Data published in patent US9452985B2, “Tau imaging probe” (GE Healthcare Limited, priority 2010, dated 2016).
pKi: −log10 of the molar value. Like-named read-outs stand apart in the source and are kept apart here.

Experiments:
K18-ΔK280 aggregates = K18-ΔK280 aggregates (Homo sapiens (Human), UniProt P10636, DEL597-597); test: Competitive binding test using [^18F] THK-5105 as radioactive competitor; settings: radioactive ligand [^18F] THK-5105 1.76 nM, K18-ΔK280 aggregates 200 nM, room temperature, one hour
Method: Regarding the binding of tau imaging probes to tau protein aggregates, a binding test was carried out and evaluated using a K18-ΔK280 construct which contained a 4-repeat structure involved in the formation of beta-sheet structures in the htau40 protein. For K18-ΔK280 (Martin von Bergen et al., THE JOURNAL OF BIOLOGICAL CHEMISTRY (2001), vol. 276, pp. 48165-48174; M. Goedert et al., NEURON (1989), vol. 3, pp. 519-526), an artificial gene fragment which was prepared based on its amino acid sequence was cloned into a pET-3a vector, the resulting plasmid was used to transform Escherichia coli BL21 (DE3) competent cells for protein expression, and the recombinant Escherichia coli cell was cultured to express K18-ΔK280. The K18-ΔK280 expressed was purified according to the method described in the literature (Stefan Barghorn et al., Methods in Molecular Biology, vol. 299, pp. 35-51). In the binding test, aggregates of the purified K18-ΔK280 were made and used.
K18-ΔK280 aggregates were made by preparing 20 μM PBS (pH 7.4) and incubating the K18-ΔK280 in the PBS at 37° C. for 4 days. The state where beta-sheet structures in K18-ΔK280 aggregates were formed was ascertained by thioflavin S fluorescence binding test. The aggregates solution was diluted to 400 nM in assay buffer (PBS, 0.1% BSA) and used in the binding test.
For tau imaging probes other than THK-5105, binding to K18-ΔK280 aggregates was evaluated with a competitive binding test using [^18F] THK-5105 as a radioactive competitor. In the binding test, [^18F] THK-5105 (at a final concentration of 1.76 nM) and a tested compound (at final concentrations of from 0.1 to 1000 nM) coexisted in the reaction system, to which K18-ΔK280 aggregates (at a final concentration of 200 nM) was then added and the mixtures were incubated at room temperature for one hour. The radioactivity of [^18F] THK-5105 binding to the aggregates was determined in a similar way as in the saturation binding test of THK-5105. The percentage of [^18F] THK-5105 bonding in the absence of each tested compound was set to be 100%, and percentages of [^18F] THK-5105 bonding at various concentrations of each of the tested compounds were determined.

neurofibrillary tangles = test: Staining test on brain section of Alzheimer's disease patients; assay type: binding, human; settings: 100 μM solution in 50% ethanol, 10 minutes, fluorescence microscope
Text: The procedure of staining test on the compounds of the present invention on the brain section of Alzheimer's disease patients is described below:
(1) We used the brain specimens of the temporal lobe or hippocampus from patients who were definitely diagnosed as having Alzheimer's disease pathology. The specimens were obtained from Choju Medical Institute, Fukushimura Hospital, our collaborating research institute, and the consent for use for research purposes was obtained from the patients' bereaved family (Fukushimura Hospital, Ethics Committee Approval No. 20).
(2) The paraffin-embedded brain tissue was sliced to 6 or 8 μm thickness, extended on a slide glass, and dried. The paraffinized brain section was deparaffinized by washing with xylene for 10 minutes×2, 100% ethanol for 5 minutes×2, 90% ethanol for 5 minutes, and running water for 10 minutes in this order.
(3) As a pretreatment for staining with the compounds of the present invention, the treatment to remove autofluorescence with lipofuscin was performed. First, the paraffinized brain section was immersed in 0.25% KMnO4 solution for 20 minutes. It was washed with PBS for 2 minutes twice, immersed in a 0.1% K2S2O5/oxalic acid solution for approximately 5 minutes, and further washed with PBS for 2 minutes 3 times.
(4) From 100 μM solution of the compounds of the present invention dissolved in 50% ethanol, approximately 150 μl was dropped on the section to react for 10 minutes. After being immersed in tap water 5 times, it was mounted with Flour Save Reagent (Calbiochem) and examined with a fluorescence microscope (Nikon, ECLIPSE 80i). The images were taken with a digital camera (Nikon, Dxin1200F or Photometrics, Cool SNAP ES).

[1] = tested on: neurofibrillary tangles (tau protein); test: Autoradiography test with [^18F] BF-227 and [^18F] THK-5035 on brain section of Alzheimer's disease patients; assay type: binding, human; settings: approximately 400 μCi/ml, 10 minutes
Method: After the paraffin-embedded brain section of Alzheimer's disease patients was deparaffinized, it was immersed in PBS for 10 minutes. Approximately 400 μCi/ml of [^18F] BF-227 and [^18F] THK-5035 were dropped on the section to react for 10 minutes at room temperature. It was immersed in distilled water for 2 minutes, shaken in 50% EtOH lightly for 2 minutes, immersed again in distilled water for 2 minutes, and dried in a paraffin extension device. The section was contacted on an imaging plate and settled overnight, and the next day, the images were read with a BAS5000 (Fujifilm Corporation). Furthermore, the serial section was immunostained with thioflavine-S staining and anti-tau antibody (AT8).

[2] = tested on: neurofibrillary tangles (tau protein); test: Autoradiography experiments using [^18F] THK-5105, [^18F] THK-5117 and [^18F] THK-5125; assay type: binding, human; settings: for affinity to neurofibrillary tangles (tau protein), autoradiography / accumulation in autoradiography of sections of the lateral temporal cortex and of the medial temporal cortex: Alzheimer's disease patient brain sections; for accumulation in autoradiography of sections of the lateral temporal cortex and of the medial temporal cortex: approximately 400 μCi/ml, 10 minutes
Method: Paraffin-embedded sections of the brain from an Alzheimer's disease patient were deparaffinized, and then immersed in PBS for 10 minutes. Approximately 400 μCi/ml of each of [^18F] THK-5105, [^18F] THK-5117, and [^18F] THK-5125 was added dropwise to deparaffinized sections and allowed to react for 10 minutes at room temperature. After that, the sections were immersed in distilled water for 2 minutes, shaken lightly in 50% EtOH for 2 minutes, immersed again in distilled water for 2 minutes, and dried in a paraffin stretching device. The section was left overnight in contact with an imaging plate. Next day, the image was read with a BAS 5000 (Fujifilm Corporation). In addition, adjacent sections were immunostained with anti-phosphorylated tau antibody (AT8).

[3] = Evaluation of brain delivery of [^18F] THK-5105, [^18F] THK-5117 and [^18F] THK-5125 in mice; assay type: in vivo, male ICR mice; settings: for delivery to and washout from the brain / % ID/g 2 minutes post-administration: mice; for delivery to and washout from the brain: compared with [^18F] BAY94-9172, [^18F] AV-45 and [^18F] FDDNP; for % ID/g 2 minutes post-administration: tail vein, brain; for 2 minutes post-administration/60 minutes post-administration: quotient of brain % ID/g values
Method: A physiological saline solution containing [^18F] THK-5105, [^18F] THK-5117, or [^18F] THK-5125 was administered into the tail vein of male ICR mice (6 to 7 weeks old), and brain delivery of these label compounds was assessed from the accumulation of radioactivity in brain and plasma tissues at two minutes post-injection.
As an index in the evaluation of radioactive accumulation, use was made of the percentage of radioactivity per unit weight of brain relative to the total radioactivity administered (% Injected Dose/g of tissue; % ID/g). For measurement of radioactivity, a gamma counter (1480 WIZARD, Perkin Elmer) was used. Experimental procedures were as follows. A label compound was administered into the tail vein of mice. Two minutes later, each mouse was subjected to cervical dislocation under ether anesthesia, and the whole brain, including the cerebellum and brain stem, was isolated immediately. The radioactivity and tissue weight of the sample were measured, and their data were used to calculate a % ID/g values for the labeled compound.

[4] = as above; assay type: in vivo, male ICR mice; settings: tail vein
[5] = data taken from Zhang et al. 2005 / Choi et al. 2009, cited from earlier work; for % ID/g 2 minutes post-administration / % ID/g 60 minutes post-administration: brain; for 2 minutes post-administration/60 minutes post-administration: quotient of brain % ID/g values

Chain of K18-ΔK280 aggregates (P10636 other isoform, or with tags, fused parts or gaps del 597-597): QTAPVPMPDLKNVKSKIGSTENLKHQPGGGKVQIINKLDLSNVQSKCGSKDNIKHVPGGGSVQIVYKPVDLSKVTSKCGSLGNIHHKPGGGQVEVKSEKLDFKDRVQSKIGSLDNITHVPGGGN

CC(=C(C#N)C#N)c1ccc2cc(N(C)CCF)ccc2c1 [FDDNP, reference compound]
pKi (K18-ΔK280 aggregates): 6.59

Nc1ccc(-c2ccc3cc(OCCF)ccc3n2)cc1 [THK-523, reference compound]
pKi (K18-ΔK280 aggregates): 7.23

Nc1ccc(-c2ccc3cc(OCC(O)CF)ccc3n2)cc1 (stereo not drawn) [THK-5116, 2-(4-aminophenyl)-6-[(3-fluoro-2-hydroxy)propoxy]quinoline]
binding to neurofibrillary tangles in the brain section of Alzheimer's disease patients (staining test) (neurofibrillary tangles): bind to neurofibrillary tangles specifically and selectively | pKi (K18-ΔK280 aggregates): 7.44

CNc1ccc(-c2ccc3cc(OCC(O)CF)ccc3n2)cc1 (stereo not drawn) [THK-5117, 6-[(3-fluoro-2-hydroxy)propoxy]-2-(4-methylaminophenyl)quinoline]
binding to neurofibrillary tangles in the brain section of Alzheimer's disease patients (staining test) (neurofibrillary tangles): bind to neurofibrillary tangles specifically and selectively | pKi (K18-ΔK280 aggregates): 7.98

CCN(CC)c1ccc(-c2ccc3cc(OCC(O)CF)ccc3n2)cc1 (stereo not drawn) [THK-5122, 6-[(3-fluoro-2-hydroxy)propoxy]-2-(4-diethylaminophenyl)quinoline]
pKi (K18-ΔK280 aggregates): 7.46

CCNc1ccc(-c2ccc3cc(OCC(O)CF)ccc3n2)cc1 (stereo not drawn) [THK-5125, 2-(4-ethylaminophenyl)-6-[(3-fluoro-2-hydroxy)propoxy]quinoline]
pKi (K18-ΔK280 aggregates): 8.04

CN(C)c1ccc(-c2ccc3cc(OCC(O)CF)ccc3n2)cn1 (stereo not drawn) [THK-5129, 6-[(3-fluoro-2-hydroxy)propoxy]-2-(2-dimethylaminopyrid-5-yl)quinoline]
pKi (K18-ΔK280 aggregates): 7.67

CNc1ccc(-c2ccc3cc(OCC(O)CF)ccc3n2)cn1 (stereo not drawn) [THK-5151, 2-(2-methylaminopyrid-5-yl)-6-[(3-fluoro-2-hydroxy)propoxy]quinoline]
pKi (K18-ΔK280 aggregates): 7.40

CN(C)c1ncc(C=Cc2nc3ccc(OCCF)cc3o2)s1 [[^18F] BF-227]
accumulation in the region where [^18F] THK-5035 was accumulated (anti-tau antibody positive region), autoradiography [1]: no accumulation

CN(C)c1ccc(-c2ccc3cc(OC[C@H](O)C[18F])ccc3n2)cc1 [[^18F] THK-5105]
affinity to neurofibrillary tangles (tau protein), autoradiography [2]: high affinity to neurofibrillary tangles (tau protein) | accumulation in autoradiography of sections of the lateral temporal cortex and of the medial temporal cortex [2]: accumulated in the lateral temporal cortex and medial temporal cortex | correspondence of autoradiography / unlabeled staining image with anti-phosphorylated tau antibody (AT8) immunostaining ([2]; hippocampus section and adjacent sections, higher magnification images): corresponded well with the image of immunostaining with the anti-phosphorylated tau antibody | delivery to and washout from the brain [3]: superior in being delivered to and washed out from the brain | % ID/g 2 minutes post-administration [3]: 9.20 % ID/g | 2 minutes post-administration/60 minutes post-administration [3]: 9.20 | % ID/g 60 minutes post-administration [4]: 1.00 % ID/g

CNc1ccc(-c2ccc3cc(OCC(O)C[18F])ccc3n2)cc1 (stereo not drawn) [[^18F] THK-5117]
affinity to neurofibrillary tangles (tau protein), autoradiography [2]: high affinity to neurofibrillary tangles (tau protein) | accumulation in autoradiography of sections of the lateral temporal cortex and of the medial temporal cortex [2]: accumulated in the lateral temporal cortex and medial temporal cortex | delivery to and washout from the brain [3]: superior in being delivered to and washed out from the brain | % ID/g 2 minutes post-administration [3]: 6.06 % ID/g | 2 minutes post-administration/60 minutes post-administration [3]: 23.3 | % ID/g 60 minutes post-administration [4]: 0.26 % ID/g

CNc1ccc(/C=C/c2ccc(OCCOCCOCC[18F])nc2)cc1 [[^18F]AV-45]
% ID/g 2 minutes post-administration [5]: 7.33 % ID/g | % ID/g 60 minutes post-administration [5]: 1.88 % ID/g | 2 minutes post-administration/60 minutes post-administration [5]: 3.90

CNc1ccc(/C=C/c2ccc(OCCOCCOCC[18F])cc2)cc1 [[^18F]BAY94-9172]
% ID/g 2 minutes post-administration [5]: 7.77 % ID/g | % ID/g 60 minutes post-administration [5]: 1.61 % ID/g | 2 minutes post-administration/60 minutes post-administration [5]: 4.83

CC(=C(C#N)C#N)c1ccc2cc(N(C)CCF)ccc2c1 [[^18F]FDDNP, reference compound]
% ID/g 2 minutes post-administration [3]: 6.23 % ID/g | 2 minutes post-administration/60 minutes post-administration [3]: 2.91 | % ID/g 60 minutes post-administration [4]: 2.14 % ID/g
